Patent US11780901B2, “Analogues of parathyroid hormone (1-34) that function as agonists of the parathyroid hormone receptor-1 and display modified activity profiles” (Wisconsin Alumni Research Foundation, priority 2013, dated 2023)
Where two headings read alike, the source gives them in different places. Starred links: 1 amine or outer side, 2 acyl side, 3 side chain; linkers in the order of their positions; H or OH if unused. Non-standard residues stand in square brackets, D forms with d. Residues, ends and D or L forms follow the SMILES beside them. X7 = NC(=O)CC[C@@H](CN[*:1])C(=O)[*:2]

Legend:
PTHR1 and PTHR2 = assay: Tolerance pattern of β residues for PTHR1 and PTHR2 activation; assay type: cell-based; set-up: key: “*” denotes potent PTHR1-selective agonism; “#” denotes potent PTHR2-selective agonism; “*#” denotes potent agonism of both PTHR1 and PTHR2; conditions: PTHR1 vs PTHR2 agonism
Text: Enhanced selectivity via double α→β replacement.

PTHR1 = molecular target: T1, PTHR1 (Homo sapiens, UniProt Q03431); assay: PTHR1 activation, cAMP production (GloSensor) in HEK293 cells; assay type: cell-based; set-up: expressed in transfected cells; conditions: for PTHR1 Activation: Derivative EC50/PTH EC50: normalized to EC50 of PTH(1-34)-NH2 ([…]), cAMP production
T1 sequence (Q03431 27-593): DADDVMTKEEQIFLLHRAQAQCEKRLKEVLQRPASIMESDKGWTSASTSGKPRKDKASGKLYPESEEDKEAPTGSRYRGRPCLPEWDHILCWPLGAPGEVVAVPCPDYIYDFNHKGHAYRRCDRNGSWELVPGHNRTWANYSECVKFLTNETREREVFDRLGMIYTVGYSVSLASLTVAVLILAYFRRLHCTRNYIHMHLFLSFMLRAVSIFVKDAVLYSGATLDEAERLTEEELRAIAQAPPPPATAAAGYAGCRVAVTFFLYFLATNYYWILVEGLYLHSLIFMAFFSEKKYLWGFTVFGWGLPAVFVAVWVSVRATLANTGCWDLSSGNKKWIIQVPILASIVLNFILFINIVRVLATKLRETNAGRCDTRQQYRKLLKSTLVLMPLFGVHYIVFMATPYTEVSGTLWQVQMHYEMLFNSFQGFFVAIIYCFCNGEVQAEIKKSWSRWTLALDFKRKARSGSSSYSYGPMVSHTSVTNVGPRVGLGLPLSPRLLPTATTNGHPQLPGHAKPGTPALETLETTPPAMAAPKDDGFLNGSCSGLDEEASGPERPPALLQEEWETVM
Text: The assays employ HEK-293 cells that have been engineered to express the appropriate receptor. GloSensor-based detection of cAMP provides a read-out of receptor activation.
For PTHR1 activation and all the binding data, data represent mean±s.e.m from three independent measurements; For PTHR2 activation, data represent mean±s.e.m from four independent measurements. Curves were fit to the data using a four-parameter sigmoidal dose-response equation.
For cAMP dose-response assays, monolayers of confluent HEK 293 cells were pre-incubated with buffer containing d-luciferin (0.5 mM) in 96 well plates at room temperature until a stable baseline level of luminescence was established (30 min). Varying concentrations of agonist were then added, and the time course of luminescence response was recorded using a Perkin Elmer plate reader following α/β-peptide addition.

[1] = HEK-293 cells, GloSensor cAMP, read-out: EC50 (nM) of PTHR1 Activation
[2] = Table 8, hPTHR1, read-out: PTHR1 EC50

EC50 (PTHR1; [1]) [nM]	EC50 (PTHR1; [2]) [nM]	PTHR1 Activation: Derivative EC50/PTH EC50 (PTHR1)	SMILES	Tolerance Pattern of β AA (PTHR1 and PTHR2)
0.42 ± 0.07	1.96 ± 0.45	1.11	CC[C@H](C)[C@H](NC(=O)[C@H](CCC(=O)O)NC(=O)[C@H](CO)NC(=O)[C@@H](NC(=O)[C@@H](N)CO)C(C)C)C(=O)NC[C@H](CCC(N)=O)C(=O)N[C@@H](CC(C)C)C(=O)N[C@@H](CCSC)C(=O)N[C@@H](Cc1c[nH]cn1)C(=O)N[C@@H](CC(N)=O)C(=O)N[C@@H](CC(C)C)C(=O)NCC(=O)N[C@@H](CCCCN)C(=O)N[C@@H](Cc1c[nH]cn1)C(=O)N[C@@H](CC(C)C)C(=O)N[C@@H](CC(N)=O)C(=O)N[C@@H](CO)C(=O)N[C@@H](CCSC)C(=O)N[C@@H](CCC(=O)O)C(=O)N[C@@H](CCCNC(=N)N)C(=O)N[C@H](C(=O)N[C@@H](CCC(=O)O)C(=O)N[C@@H](Cc1c[nH]c2ccccc12)C(=O)N[C@@H](CC(C)C)C(=O)N[C@@H](CCCNC(=N)N)C(=O)N[C@@H](CCCCN)C(=O)N[C@@H](CCCCN)C(=O)N[C@@H](CC(C)C)C(=O)N[C@@H](CCC(N)=O)C(=O)N[C@@H](CC(=O)O)C(=O)N[C@H](C(=O)N[C@@H](Cc1c[nH]cn1)C(=O)N[C@@H](CC(N)=O)C(=O)N[C@@H](Cc1ccccc1)C(N)=O)C(C)C)C(C)C [SEQ. ID. NO: 35] (H-SVSEI[X7]LMHNLGKHLNSMERVEWLRKKLQDVHNF-NH2; N-terminus assumed)	*#
0.27 ± 0.06	–	–	CC[C@H](C)[C@H](NC(=O)[C@H](CCC(=O)O)NC(=O)[C@H](CO)NC(=O)[C@@H](NC(=O)C[C@@H](N)CO)C(C)C)C(=O)N[C@@H](CCC(N)=O)C(=O)N[C@@H](CC(C)C)C(=O)N[C@@H](CCSC)C(=O)N[C@@H](Cc1c[nH]cn1)C(=O)N[C@@H](CC(N)=O)C(=O)N[C@@H](CC(C)C)C(=O)NCC(=O)N[C@@H](CCCCN)C(=O)N[C@@H](Cc1c[nH]cn1)C(=O)N[C@@H](CC(C)C)C(=O)N[C@@H](CC(N)=O)C(=O)N[C@@H](CO)C(=O)N[C@@H](CCSC)C(=O)N[C@@H](CCC(=O)O)C(=O)N[C@@H](CCCNC(=N)N)C(=O)N[C@H](C(=O)N[C@@H](CCC(=O)O)C(=O)N[C@@H](Cc1c[nH]c2ccccc12)C(=O)N[C@@H](CC(C)C)C(=O)N[C@@H](CCCNC(=N)N)C(=O)N[C@@H](CCCCN)C(=O)N[C@@H](CCCCN)C(=O)N[C@@H](CC(C)C)C(=O)N[C@@H](CCC(N)=O)C(=O)N[C@@H](CC(=O)O)C(=O)N[C@H](C(=O)N[C@@H](Cc1c[nH]cn1)C(=O)N[C@@H](CC(N)=O)C(=O)N[C@@H](Cc1ccccc1)C(N)=O)C(C)C)C(C)C [SEQ. ID. NO: 38]	*#
0.47 ± 0.14	0.24 ± 0.01	1.24	CC[C@H](C)[C@H](NC(=O)[C@H](CCC(=O)O)NC(=O)[C@H](CO)NC(=O)[C@@H](NC(=O)[C@@H](N)CO)C(C)C)C(=O)N[C@@H](CCC(N)=O)C(=O)NC[C@H](CC(C)C)C(=O)N[C@@H](CCSC)C(=O)N[C@@H](Cc1c[nH]cn1)C(=O)N[C@@H](CC(N)=O)C(=O)N[C@@H](CC(C)C)C(=O)NCC(=O)N[C@@H](CCCCN)C(=O)N[C@@H](Cc1c[nH]cn1)C(=O)N[C@@H](CC(C)C)C(=O)N[C@@H](CC(N)=O)C(=O)N[C@@H](CO)C(=O)N[C@@H](CCSC)C(=O)N[C@@H](CCC(=O)O)C(=O)N[C@@H](CCCNC(=N)N)C(=O)N[C@H](C(=O)N[C@@H](CCC(=O)O)C(=O)N[C@@H](Cc1c[nH]c2ccccc12)C(=O)N[C@@H](CC(C)C)C(=O)N[C@@H](CCCNC(=N)N)C(=O)N[C@@H](CCCCN)C(=O)N[C@@H](CCCCN)C(=O)N[C@@H](CC(C)C)C(=O)N[C@@H](CCC(N)=O)C(=O)N[C@@H](CC(=O)O)C(=O)N[C@H](C(=O)N[C@@H](Cc1c[nH]cn1)C(=O)N[C@@H](CC(N)=O)C(=O)N[C@@H](Cc1ccccc1)C(N)=O)C(C)C)C(C)C [SEQ. ID. NO: 36]	*#
